According to the kinase profiling compilation of Christmann-Franck et al. (2016):

Assays:
Assay in all cases: radiometric filter-binding kinase assay
DYRK3 (human) = DYRK3 (human) (UniProt O43781)
CSNK1D (human) = CSNK1D (human) (UniProt P48730)
NTRK1 (human) = NTRK1 (human) (UniProt P04629); conditions: compound 0.1 µM
MARK3 (human) = MARK3 (human) (UniProt P27448)
[1] = test system: AKT1 (human), P31749 [S473D]
MAPK8 (human) = MAPK8 (human) (UniProt P45983)
MAPKAPK2 (human) = MAPKAPK2 (human) (UniProt P49137)
JAK2 JH1 JH2 (human) = JAK2 JH1 JH2 (human) (UniProt O60674); conditions: compound 0.1 µM
MARK2 (human) = MARK2 (human) (UniProt Q7KZI7); conditions: compound 0.1 µM
MAPK3 (human) = MAPK3 (human) (UniProt P27361)
DYRK1A (human) = DYRK1A (human) (UniProt Q13627)
CHEK2 (human) = CHEK2 (human) (UniProt O96017)
NEK6 (human) = NEK6 (human) (UniProt Q9HC98)
MAPK9 (human) = MAPK9 (human) (UniProt P45984)
TTK (human) = TTK (human) (UniProt P33981)
IRAK4 (human) = IRAK4 (human) (UniProt Q9NWZ3)
PAK4 (human) = PAK4 (human) (UniProt O96013)
IKBKB (human) = IKBKB (human) (UniProt O14920)
IKBKB (human), sequence (O14920 whole entry, looked up): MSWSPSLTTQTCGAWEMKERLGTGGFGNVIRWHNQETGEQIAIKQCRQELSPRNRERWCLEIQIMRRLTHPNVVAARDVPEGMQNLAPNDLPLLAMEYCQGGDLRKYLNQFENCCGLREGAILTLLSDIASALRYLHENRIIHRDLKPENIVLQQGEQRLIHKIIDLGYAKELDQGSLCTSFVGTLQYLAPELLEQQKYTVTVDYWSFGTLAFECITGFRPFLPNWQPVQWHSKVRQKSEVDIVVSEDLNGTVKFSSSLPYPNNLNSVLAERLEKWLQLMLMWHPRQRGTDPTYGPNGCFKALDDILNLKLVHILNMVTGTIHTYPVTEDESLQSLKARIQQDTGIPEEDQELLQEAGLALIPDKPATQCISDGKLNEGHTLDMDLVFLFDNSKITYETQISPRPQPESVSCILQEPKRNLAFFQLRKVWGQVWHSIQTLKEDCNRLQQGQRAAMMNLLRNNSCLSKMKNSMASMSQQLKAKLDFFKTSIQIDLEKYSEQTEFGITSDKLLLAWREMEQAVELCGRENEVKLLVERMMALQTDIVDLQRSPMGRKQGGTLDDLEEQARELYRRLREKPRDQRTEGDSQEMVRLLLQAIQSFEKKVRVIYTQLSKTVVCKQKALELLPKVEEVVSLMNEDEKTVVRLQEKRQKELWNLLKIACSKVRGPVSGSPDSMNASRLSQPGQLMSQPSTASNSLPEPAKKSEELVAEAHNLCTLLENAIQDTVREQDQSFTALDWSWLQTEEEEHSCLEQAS

MAP2K1 (human) = MAP2K1 (human) (UniProt Q02750)
RPS6KA1 KD1 KD2 (human) = RPS6KA1 KD1 KD2 (human) (UniProt Q15418)
IKBKE (human) = IKBKE (human) (UniProt Q14164)
IKBKE (human), sequence (Q14164 whole entry, looked up): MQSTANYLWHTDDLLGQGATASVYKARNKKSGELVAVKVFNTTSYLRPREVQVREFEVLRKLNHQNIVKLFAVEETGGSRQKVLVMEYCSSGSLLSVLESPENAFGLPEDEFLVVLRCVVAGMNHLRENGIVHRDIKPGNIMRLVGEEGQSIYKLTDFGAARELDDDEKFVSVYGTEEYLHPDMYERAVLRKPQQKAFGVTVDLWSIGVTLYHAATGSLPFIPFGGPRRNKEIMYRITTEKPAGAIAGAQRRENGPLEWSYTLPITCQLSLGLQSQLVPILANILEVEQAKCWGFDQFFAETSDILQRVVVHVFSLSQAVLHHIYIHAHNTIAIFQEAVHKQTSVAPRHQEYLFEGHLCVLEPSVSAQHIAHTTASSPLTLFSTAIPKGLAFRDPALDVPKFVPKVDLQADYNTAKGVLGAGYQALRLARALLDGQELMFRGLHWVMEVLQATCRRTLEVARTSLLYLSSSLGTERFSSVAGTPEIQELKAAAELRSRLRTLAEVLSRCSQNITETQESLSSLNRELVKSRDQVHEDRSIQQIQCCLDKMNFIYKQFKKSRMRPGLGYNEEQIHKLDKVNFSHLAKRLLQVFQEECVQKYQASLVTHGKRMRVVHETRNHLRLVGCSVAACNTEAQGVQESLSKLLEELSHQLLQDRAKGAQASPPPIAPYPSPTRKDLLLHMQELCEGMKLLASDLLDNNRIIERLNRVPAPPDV

MARK1 (human) = MARK1 (human) (UniProt Q9P0L2); conditions: compound 0.1 µM
[2] = molecular target: STK11 CAB39 STRADA (human) (UniProt Q9Y376+Q7RTN6+Q15831)
MKNK1 (human) = MKNK1 (human) (UniProt Q9BUB5)
MAP3K11 (human) = MAP3K11 (human) (UniProt Q16584)
MAP3K11 (human), sequence (Q16584 whole entry, looked up): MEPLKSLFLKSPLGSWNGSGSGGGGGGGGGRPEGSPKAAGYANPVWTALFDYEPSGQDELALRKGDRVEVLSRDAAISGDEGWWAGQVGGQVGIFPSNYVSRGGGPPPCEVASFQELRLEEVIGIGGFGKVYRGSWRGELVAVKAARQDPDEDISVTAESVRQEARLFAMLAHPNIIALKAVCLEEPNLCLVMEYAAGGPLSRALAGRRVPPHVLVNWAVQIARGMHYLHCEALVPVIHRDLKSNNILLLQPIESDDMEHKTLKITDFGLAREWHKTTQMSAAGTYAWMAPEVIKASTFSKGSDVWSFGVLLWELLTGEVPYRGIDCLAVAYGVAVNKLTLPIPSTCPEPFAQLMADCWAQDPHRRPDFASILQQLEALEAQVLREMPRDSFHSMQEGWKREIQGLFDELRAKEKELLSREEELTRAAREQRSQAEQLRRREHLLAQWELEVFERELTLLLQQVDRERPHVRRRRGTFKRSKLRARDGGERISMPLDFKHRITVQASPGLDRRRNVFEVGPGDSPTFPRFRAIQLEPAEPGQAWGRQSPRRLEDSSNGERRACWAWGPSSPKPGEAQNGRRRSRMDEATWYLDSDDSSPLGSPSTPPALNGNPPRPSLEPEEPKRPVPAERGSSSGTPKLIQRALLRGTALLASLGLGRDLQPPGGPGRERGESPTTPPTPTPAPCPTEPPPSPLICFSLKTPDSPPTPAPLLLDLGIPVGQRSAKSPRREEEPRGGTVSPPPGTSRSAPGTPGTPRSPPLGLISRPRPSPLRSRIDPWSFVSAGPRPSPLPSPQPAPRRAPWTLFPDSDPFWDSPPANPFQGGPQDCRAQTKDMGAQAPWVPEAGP

NUAK1 (human) = NUAK1 (human) (UniProt O60285)
MAPK14 (human) = MAPK14 (human) (UniProt Q16539)
TBK1 (human) = TBK1 (human) (UniProt Q9UHD2)
CaMK1 (human) = CaMK1 (human) (UniProt Q14012)
CaMK1 (human), sequence (Q14012 whole entry, looked up): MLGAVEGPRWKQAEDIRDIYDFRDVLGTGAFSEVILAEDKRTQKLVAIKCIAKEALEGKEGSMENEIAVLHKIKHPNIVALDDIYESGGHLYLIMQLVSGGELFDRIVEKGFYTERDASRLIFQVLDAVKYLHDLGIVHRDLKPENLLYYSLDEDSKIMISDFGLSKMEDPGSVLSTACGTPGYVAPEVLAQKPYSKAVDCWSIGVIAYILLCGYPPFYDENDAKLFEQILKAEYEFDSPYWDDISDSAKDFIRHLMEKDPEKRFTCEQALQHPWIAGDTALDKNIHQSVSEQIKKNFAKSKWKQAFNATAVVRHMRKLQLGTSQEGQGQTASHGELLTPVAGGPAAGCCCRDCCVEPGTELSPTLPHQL

MKNK2 (human) = MKNK2 (human) (UniProt Q9HBH9)
MKNK2 (human), sequence (Q9HBH9 whole entry, looked up): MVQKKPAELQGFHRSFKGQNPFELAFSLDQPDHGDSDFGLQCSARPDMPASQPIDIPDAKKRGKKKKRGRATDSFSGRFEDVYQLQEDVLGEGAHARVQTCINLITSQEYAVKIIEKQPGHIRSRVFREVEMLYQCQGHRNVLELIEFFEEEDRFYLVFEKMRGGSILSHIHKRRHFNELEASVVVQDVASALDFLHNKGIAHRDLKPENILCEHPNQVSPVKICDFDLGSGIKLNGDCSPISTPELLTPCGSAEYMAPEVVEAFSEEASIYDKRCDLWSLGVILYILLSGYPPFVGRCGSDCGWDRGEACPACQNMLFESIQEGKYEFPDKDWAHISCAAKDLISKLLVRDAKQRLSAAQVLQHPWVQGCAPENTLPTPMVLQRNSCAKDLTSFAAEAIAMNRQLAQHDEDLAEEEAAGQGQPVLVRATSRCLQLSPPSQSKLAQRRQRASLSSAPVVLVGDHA

STK3 (human) = STK3 (human) (UniProt Q13188)
STK3 (human), sequence (Q13188 whole entry, looked up): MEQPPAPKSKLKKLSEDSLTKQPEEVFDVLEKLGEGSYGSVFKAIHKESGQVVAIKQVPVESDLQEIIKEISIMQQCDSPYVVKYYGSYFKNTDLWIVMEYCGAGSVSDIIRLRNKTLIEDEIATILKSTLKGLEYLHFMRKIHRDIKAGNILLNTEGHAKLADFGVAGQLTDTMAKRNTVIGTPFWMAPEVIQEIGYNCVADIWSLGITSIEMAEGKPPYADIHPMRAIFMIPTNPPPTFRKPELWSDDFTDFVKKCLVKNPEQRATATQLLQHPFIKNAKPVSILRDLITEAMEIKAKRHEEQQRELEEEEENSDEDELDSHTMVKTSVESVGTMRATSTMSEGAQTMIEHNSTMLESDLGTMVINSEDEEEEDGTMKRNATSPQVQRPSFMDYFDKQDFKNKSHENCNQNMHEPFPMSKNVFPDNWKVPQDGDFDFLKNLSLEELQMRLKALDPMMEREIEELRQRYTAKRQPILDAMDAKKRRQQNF

[3] = test system: RPS6KB1 (human), P23443 [T412E]
EPHB2 (human) = EPHB2 (human) (UniProt P29323); conditions: compound 0.1 µM
PIM1 (human) = PIM1 (human) (UniProt P11309)
NEK2 (human) = NEK2 (human) (UniProt P51955)

MARK3 (human), sequence (P27448 whole entry, looked up): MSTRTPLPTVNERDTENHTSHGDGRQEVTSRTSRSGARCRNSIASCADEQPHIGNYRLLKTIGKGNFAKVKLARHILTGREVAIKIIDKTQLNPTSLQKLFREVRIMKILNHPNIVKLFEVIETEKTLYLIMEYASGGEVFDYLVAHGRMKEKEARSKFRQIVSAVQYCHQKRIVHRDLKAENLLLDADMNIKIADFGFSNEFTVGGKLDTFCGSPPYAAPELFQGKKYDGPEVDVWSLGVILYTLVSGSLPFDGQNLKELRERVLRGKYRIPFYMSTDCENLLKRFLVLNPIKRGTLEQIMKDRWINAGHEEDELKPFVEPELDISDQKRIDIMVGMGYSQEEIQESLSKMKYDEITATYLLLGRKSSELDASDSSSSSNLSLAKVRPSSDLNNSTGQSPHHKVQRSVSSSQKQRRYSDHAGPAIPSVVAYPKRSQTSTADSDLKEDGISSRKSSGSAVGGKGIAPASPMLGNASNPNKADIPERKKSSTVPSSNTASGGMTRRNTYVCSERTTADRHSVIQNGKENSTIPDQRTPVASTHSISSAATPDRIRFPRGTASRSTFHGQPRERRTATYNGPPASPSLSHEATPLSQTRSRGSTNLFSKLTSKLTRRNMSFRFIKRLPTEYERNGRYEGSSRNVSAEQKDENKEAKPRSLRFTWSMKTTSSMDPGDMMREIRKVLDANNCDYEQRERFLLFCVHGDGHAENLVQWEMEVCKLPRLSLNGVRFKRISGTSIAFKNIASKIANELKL
MAPK8 (human), sequence (P45983 whole entry, looked up): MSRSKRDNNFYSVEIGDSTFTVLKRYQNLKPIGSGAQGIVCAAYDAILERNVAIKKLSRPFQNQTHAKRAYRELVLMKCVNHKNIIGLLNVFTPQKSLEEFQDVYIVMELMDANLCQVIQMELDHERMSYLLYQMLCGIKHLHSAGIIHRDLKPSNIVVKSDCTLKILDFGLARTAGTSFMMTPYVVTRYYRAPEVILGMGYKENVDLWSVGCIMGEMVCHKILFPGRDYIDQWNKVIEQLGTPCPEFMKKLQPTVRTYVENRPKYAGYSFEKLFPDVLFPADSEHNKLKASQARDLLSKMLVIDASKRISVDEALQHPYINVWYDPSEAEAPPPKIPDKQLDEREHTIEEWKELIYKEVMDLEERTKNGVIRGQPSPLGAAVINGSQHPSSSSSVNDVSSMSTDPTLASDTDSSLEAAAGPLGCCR

- residual activity (DYRK3 (human); compound 0.1 µM): 79%
- residual activity (DYRK3 (human); compound 1.0 µM): 57%
- residual activity (DYRK3 (human); compound 10.0 µM): 17%
- residual activity (CSNK1D (human); compound 0.1 µM): 70%
- residual activity (CSNK1D (human); compound 1.0 µM): 12%
- residual activity (CSNK1D (human); compound 10.0 µM): 3%
- residual activity (NTRK1 (human)): 29%
- residual activity (MARK3 (human); compound 0.1 µM): 89%
- residual activity (MARK3 (human); compound 1.0 µM): 60%
- residual activity (MARK3 (human); compound 10.0 µM): 29%
- residual activity ([1]; compound 0.1 µM): 104%
- residual activity ([1]; compound 1.0 µM): 72%
- residual activity ([1]; compound 10.0 µM): 57%
- residual activity (MAPK8 (human); compound 0.1 µM): 81%
- residual activity (MAPK8 (human); compound 1.0 µM): 74%
- residual activity (MAPK8 (human); compound 10.0 µM): 39%
- residual activity (MAPKAPK2 (human); compound 0.1 µM): 107%
- residual activity (MAPKAPK2 (human); compound 1.0 µM): 103%
- residual activity (MAPKAPK2 (human); compound 10.0 µM): 96%
- residual activity (JAK2 JH1 JH2 (human)): 24%
- residual activity (MARK2 (human)): 88%
- residual activity (MAPK3 (human); compound 0.1 µM): 105%
- residual activity (MAPK3 (human); compound 1.0 µM): 75%
- residual activity (MAPK3 (human); compound 10.0 µM): 39%
- residual activity (DYRK1A (human); compound 0.1 µM): 79%
- residual activity (DYRK1A (human); compound 1.0 µM): 47%
- residual activity (DYRK1A (human); compound 10.0 µM): 8%
- residual activity (CHEK2 (human); compound 0.1 µM): 83%
- residual activity (CHEK2 (human); compound 1.0 µM): 40%
- residual activity (CHEK2 (human); compound 10.0 µM): 28%
- residual activity (NEK6 (human); compound 0.1 µM): 104%
- residual activity (NEK6 (human); compound 10.0 µM): 107%
- residual activity (MAPK9 (human); compound 0.1 µM): 80%
- residual activity (MAPK9 (human); compound 1.0 µM): 46%
- residual activity (MAPK9 (human); compound 10.0 µM): 9%
- residual activity (TTK (human); compound 0.1 µM): 89%
- residual activity (TTK (human); compound 1.0 µM): 79%
- residual activity (TTK (human); compound 10.0 µM): 46%
- residual activity (IRAK4 (human); compound 0.1 µM): 20%
- residual activity (IRAK4 (human); compound 1.0 µM): 12%
- residual activity (IRAK4 (human); compound 10.0 µM): 12%
- residual activity (PAK4 (human); compound 0.1 µM): 96%
- residual activity (PAK4 (human); compound 1.0 µM): 85%
- residual activity (PAK4 (human); compound 10.0 µM): 39%
- residual activity (IKBKB (human); compound 0.1 µM): 94%
- residual activity (IKBKB (human); compound 1.0 µM): 97%
- residual activity (IKBKB (human); compound 10.0 µM): 64%
- residual activity (MAP2K1 (human); compound 0.1 µM): 105%
- residual activity (MAP2K1 (human); compound 1.0 µM): 34%
- residual activity (MAP2K1 (human); compound 10.0 µM): 12%
- residual activity (RPS6KA1 KD1 KD2 (human); compound 0.1 µM): 102%
- residual activity (RPS6KA1 KD1 KD2 (human); compound 1.0 µM): 93%
- residual activity (RPS6KA1 KD1 KD2 (human); compound 10.0 µM): 38%
- residual activity (IKBKE (human); compound 0.1 µM): 91%
- residual activity (IKBKE (human); compound 1.0 µM): 44%
- residual activity (IKBKE (human); compound 10.0 µM): 14%
- residual activity (MARK1 (human)): 97%
- residual activity ([2]; compound 0.1 µM): 86%
- residual activity ([2]; compound 1.0 µM): 89%
- residual activity (MKNK1 (human); compound 0.1 µM): 28%
- residual activity (MKNK1 (human); compound 1.0 µM): 3%
- residual activity (MKNK1 (human); compound 10.0 µM): 3%
- residual activity (MAP3K11 (human); compound 0.1 µM): 75%
- residual activity (MAP3K11 (human); compound 1.0 µM): 33%
- residual activity (MAP3K11 (human); compound 10.0 µM): 5%
- residual activity (NUAK1 (human); compound 0.1 µM): 45%
- residual activity (NUAK1 (human); compound 1.0 µM): 15%
- residual activity (NUAK1 (human); compound 10.0 µM): 10%
- residual activity (MAPK14 (human); compound 0.1 µM): 94%
- residual activity (MAPK14 (human); compound 1.0 µM): 119%
- residual activity (MAPK14 (human); compound 10.0 µM): 106%
- residual activity (TBK1 (human); compound 0.1 µM): 86%
- residual activity (TBK1 (human); compound 1.0 µM): 70%
- residual activity (TBK1 (human); compound 10.0 µM): 27%
- residual activity (CaMK1 (human); compound 0.1 µM): 104%
- residual activity (CaMK1 (human); compound 1.0 µM): 99%
- residual activity (CaMK1 (human); compound 10.0 µM): 80%
- residual activity (MKNK2 (human); compound 0.1 µM): 68%
- residual activity (MKNK2 (human); compound 1.0 µM): 14%
- residual activity (MKNK2 (human); compound 10.0 µM): 4%
- residual activity (STK3 (human); compound 0.1 µM): 68%
- residual activity (STK3 (human); compound 1.0 µM): 22%
- residual activity (STK3 (human); compound 10.0 µM): 4%
- residual activity ([3]; compound 0.1 µM): 100%
- residual activity ([3]; compound 1.0 µM): 74%
- residual activity ([3]; compound 10.0 µM): 24%
- residual activity (EPHB2 (human)): 86%
- residual activity (PIM1 (human); compound 0.1 µM): 91%
- residual activity (PIM1 (human); compound 1.0 µM): 62%
- residual activity (PIM1 (human); compound 10.0 µM): 26%
- residual activity (NEK2 (human); compound 0.1 µM): 114%
- residual activity (NEK2 (human); compound 1.0 µM): 60%
- residual activity (NEK2 (human); compound 10.0 µM): 27%
SMILES: O=C(O)c1ccc(-c2c[nH]c3ncc(-c4ccccc4)cc23)cc1C1CCCC1
